From US20230160007A1, “KIT FOR EVALUATING SENSITIVITY OF PATIENT TO MET INHIBITOR” (Beijing Neurosurgical Institute, priority 2020, published 2023)

Experiments:
Type in all cases: cell-based, human
[1] = system: glioblastoma PDC sample C; assay: CCK-8 viable count of glioblastoma PDC sample C after drug treatment; conditions: for Living cell proportion (a value relative to CCK8): 72 h
Method: (§1) Enzymolysis was separately carried out on the four collected glioblastoma samples to obtain glioblastoma PDC samples A, B, C and D.
(§2) The glioblastoma PDC samples A, B, C and D were taken, re-suspended by using a special culture medium, and then respectively inoculated into a 96-well cell culture plate, so that each culture well contained 3000 cells. After inoculation was completed, the 96-well cell culture plate was placed in an incubator containing 5% CO2 at 37° C., and incubation was performed for 24 h.

[2] = system: glioblastoma PDC sample B; assay: CCK-8 viable count of glioblastoma PDC sample B after drug treatment; conditions: for Living cell proportion (a value relative to CCK8): PDC sample B, 72 h
Method: as §1, §2

[3] = system: glioblastoma PDC sample A; assay: CCK-8 viable count of glioblastoma PDC sample A after drug treatment; conditions: for Living cell proportion (a value relative to CCK8): PDC sample A, 72 h
Method: as §1
as §2, with “h. […] After the drug was added, the incubation was continued to be performed for 72 h, then the viable count in each culture well was measured by using CCK-8, and the results are shown in Table 1, Table 2, FIG. 11 and FIG. 12.” for “h.”

[4] = system: glioblastoma PDC sample D; assay: CCK-8 viable count of glioblastoma PDC sample D after drug treatment; conditions: for Living cell proportion (a value relative to CCK8): 72 h
Method: as §1
as §2, with “h. […] After the drug was added, the incubation was continued to be performed for 72 h, then the viable count in each culture well was measured by using CCK-8, and the results are shown in Table 1, Table 2, FIG. 11 and FIG. 12.” for “h.”

## Cn1nnc2c(C(N)=O)ncn2c1=O [TMZ, temozolomide]
[1]; TMZ 50 μM
  Living cell proportion (a value relative to CCK8): 0.6188
[1]; TMZ 100 μM
  Living cell proportion (a value relative to CCK8): 0.5841
[1]; TMZ 150 μM
  Living cell proportion (a value relative to CCK8): 0.4536
[1]; TMZ 200 μM
  Living cell proportion (a value relative to CCK8): 0.4768
[1]; TMZ 300 μM
  Living cell proportion (a value relative to CCK8): 0.4315
[1]; TMZ 400 μM
  Living cell proportion (a value relative to CCK8): 0.3164
[1]; TMZ 600 μM
  Living cell proportion (a value relative to CCK8): 0.2817
[1]; TMZ 800 μM
  Living cell proportion (a value relative to CCK8): 0.2834
[1]; TMZ 1000 μM
  Living cell proportion (a value relative to CCK8): 0.3585
[2]; TMZ 50 μM
  Living cell proportion (a value relative to CCK8): 0.8549
[2]; TMZ 100 μM
  Living cell proportion (a value relative to CCK8): 0.8905
[2]; TMZ 150 μM
  Living cell proportion (a value relative to CCK8): 0.9369
[2]; TMZ 200 μM
  Living cell proportion (a value relative to CCK8): 0.8763
[2]; TMZ 300 μM
  Living cell proportion (a value relative to CCK8): 0.724
[2]; TMZ 400 μM
  Living cell proportion (a value relative to CCK8): 0.7183
[2]; TMZ 600 μM
  Living cell proportion (a value relative to CCK8): 0.5489
[2]; TMZ 800 μM
  Living cell proportion (a value relative to CCK8): 0.345
[2]; TMZ 1000 μM
  Living cell proportion (a value relative to CCK8): 0.3175
[3]; TMZ 50 μM
  Living cell proportion (a value relative to CCK8): 0.8481
[3]; TMZ 100 μM
  Living cell proportion (a value relative to CCK8): 0.8696
[3]; TMZ 150 μM
  Living cell proportion (a value relative to CCK8): 0.7968
[3]; TMZ 200 μM
  Living cell proportion (a value relative to CCK8): 0.7843
[3]; TMZ 300 μM
  Living cell proportion (a value relative to CCK8): 0.7824
[3]; TMZ 400 μM
  Living cell proportion (a value relative to CCK8): 0.6482
[3]; TMZ 600 μM
  Living cell proportion (a value relative to CCK8): 0.5261
[3]; TMZ 800 μM
  Living cell proportion (a value relative to CCK8): 0.4052
[3]; TMZ 1000 μM
  Living cell proportion (a value relative to CCK8): 0.2577
[4]; TMZ 50 μM
  Living cell proportion (a value relative to CCK8): 0.7828
[4]; TMZ 100 μM
  Living cell proportion (a value relative to CCK8): 0.647
[4]; TMZ 150 μM
  Living cell proportion (a value relative to CCK8): 0.5799
[4]; TMZ 200 μM
  Living cell proportion (a value relative to CCK8): 0.5468
[4]; TMZ 300 μM
  Living cell proportion (a value relative to CCK8): 0.4681
[4]; TMZ 400 μM
  Living cell proportion (a value relative to CCK8): 0.3984
[4]; TMZ 600 μM
  Living cell proportion (a value relative to CCK8): 0.3435
[4]; TMZ 800 μM
  Living cell proportion (a value relative to CCK8): 0.2684
[4]; TMZ 1000 μM
  Living cell proportion (a value relative to CCK8): 0.2529

## C[C@@H](Oc1cc(-c2cnn(C3CCNCC3)c2)cnc1N)c1c(Cl)ccc(F)c1Cl [crizotinib]
[1]; crizotinib 0.5 μM
  Living cell proportion (a value relative to CCK8): 0.9496
[1]; crizotinib 1 μM
  Living cell proportion (a value relative to CCK8): 0.8619
[1]; crizotinib 2 μM
  Living cell proportion (a value relative to CCK8): 0.8082
[1]; crizotinib 6 μM
  Living cell proportion (a value relative to CCK8): 0.6643
[1]; crizotinib 9 μM
  Living cell proportion (a value relative to CCK8): 0.4383
[1]; crizotinib 12 μM
  Living cell proportion (a value relative to CCK8): 0.4003
[1]; crizotinib 15 μM
  Living cell proportion (a value relative to CCK8): 0.3824
[1]; in words
  sensitivity of the glioblastoma PDC sample to the drug: sensitive
[2]; PDC sample B (MET exon 10 deleted), in words
  sensitivity of the glioblastoma PDC sample to the drug: sensitive
[2]; crizotinib 0.5 μM
  Living cell proportion (a value relative to CCK8): 0.9128
[2]; crizotinib 1 μM
  Living cell proportion (a value relative to CCK8): 0.7978
[2]; crizotinib 1.5 μM
  Living cell proportion (a value relative to CCK8): 0.7125
[2]; crizotinib 6 μM
  Living cell proportion (a value relative to CCK8): 0.3689
[2]; crizotinib 9 μM
  Living cell proportion (a value relative to CCK8): 0.3059
[2]; crizotinib 12 μM
  Living cell proportion (a value relative to CCK8): 0.2806
[2]; crizotinib 15 μM
  Living cell proportion (a value relative to CCK8): 0.2769
[3]; PDC sample A (MET exon 10 and exon 19 deleted), in words
  sensitivity of the glioblastoma PDC sample to the drug: sensitive
[3]; crizotinib 0.5 μM
  Living cell proportion (a value relative to CCK8): 0.824
[3]; crizotinib 1 μM
  Living cell proportion (a value relative to CCK8): 0.5684
[3]; crizotinib 1.5 μM
  Living cell proportion (a value relative to CCK8): 0.4624
[3]; crizotinib 2 μM
  Living cell proportion (a value relative to CCK8): 0.3834
[3]; crizotinib 3 μM
  Living cell proportion (a value relative to CCK8): 0.3316
[3]; crizotinib 6 μM
  Living cell proportion (a value relative to CCK8): 0.2663
[3]; crizotinib 9 μM
  Living cell proportion (a value relative to CCK8): 0.2482
[3]; crizotinib 12 μM
  Living cell proportion (a value relative to CCK8): 0.2387
[3]; crizotinib 15 μM
  Living cell proportion (a value relative to CCK8): 0.2518
[4]; crizotinib 0.5 μM
  Living cell proportion (a value relative to CCK8): 0.9247
[4]; crizotinib 1 μM
  Living cell proportion (a value relative to CCK8): 0.8162
[4]; crizotinib 1.5 μM
  Living cell proportion (a value relative to CCK8): 0.7327
[4]; crizotinib 2 μM
  Living cell proportion (a value relative to CCK8): 0.6986
[4]; crizotinib 3 μM
  Living cell proportion (a value relative to CCK8): 0.7544
[4]; crizotinib 6 μM
  Living cell proportion (a value relative to CCK8): 0.5995
[4]; crizotinib 9 μM
  Living cell proportion (a value relative to CCK8): 0.4381
[4]; crizotinib 12 μM
  Living cell proportion (a value relative to CCK8): 0.3812
[4]; crizotinib 15 μM
  Living cell proportion (a value relative to CCK8): 0.4752
[4]; in words
  sensitivity of the glioblastoma PDC sample to the drug: sensitive
